Patent publication US12552783B2, “Modulators of proteolysis and associated methods of use” (Arvinas Operations, Inc., priority 2018, dated 2026)

Molecular target: KRas (Homo sapiens, UniProt P01116, G12C)
Test: KRas degradation in NCI-H2030 cells by Western blot, normalized to GAPDH (data of Table 14)
Format: cell-based
Parameters: host or cells: NCI-H2030
Conditions: for Dmax: NCI-H2030
In short: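 Cells serum-starved 24 h, then treated at 0.3, 1 and 3 μM in 0.1% DMSO, 24 h for VHL-based compounds and 72 h for others. Lysates (10 μg protein) immunoblotted; KRas normalized to GAPDH, degradation visually estimated below 25% or quantified versus DMSO lane, giving DC50 and DMax.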

SMILES | Percent Degradation at Indicated Concentration (μM) (H2030, 0.3 μM) | Percent Degradation at Indicated Concentration (μM) (H2030, 1 μM) | Percent Degradation at Indicated Concentration (μM) (H2030, 3 μM) | Dmax [%] | further results
C=CC(=O)N1CCN(c2nc(Nc3ccc(OCCOCCOCCOCC(=O)N[C@H](C(=O)N4C[C@H](O)C[C@H]4C(=O)N[C@@H](C)c4ccc(-c5scnc5C)cc4)C(C)(C)C)cc3)nc3c(F)c(-c4cc(O)cc5ccccc45)c(Cl)cc23)CC1 [compound 483, (2S,4R)-1-((2S)-14-(4-((4-(4-acryloylpiperazin-1-yl)-6-chloro-8-fluoro-7-(3-hydroxynaphthalen-1-yl)quinazolin-2-yl)amino)phenoxy)-2-(tert-butyl)-4-oxo-6,9,12-trioxa-3-azatetradecanoyl)-4-hydroxy-N-((S)-1-(4-(4-methylthiazol-5-yl)phenyl)ethyl)pyrrolidine-2-carboxamide] | C (Percent Degradation: C ≤ 35) | C (Percent Degradation: C ≤ 35) | C (Percent Degradation: C ≤ 35) | ≤ 35 | –
C=CC(=O)N1CCN(c2nc(NCCC(=O)N(C)CCOCCOCCOCCNc3cccc4c3C(=O)N(C3CCC(=O)NC3=O)C4=O)nc3c(F)c(-c4cc(O)cc5ccccc45)c(Cl)cc23)CC1 (centres unmarked) [compound 58, 3-((4-(4-acryloylpiperazin-1-yl)-6-chloro-8-fluoro-7-(3-hydroxynaphthalen-1-yl)quinazolin-2-yl)amino)-N-(2-(2-(2-(2-((2-(2,6-dioxopiperidin-3-yl)-1,3-dioxoisoindolin-4-yl)amino)ethoxy)ethoxy)ethoxy)ethyl)-N-methylpropanamide] | – | – | – | – | Percent Degradation at Indicated Concentration (μM): 0.3 (H2030 cells, 0.3 μM): C (C ≤ 35); Percent Degradation at Indicated Concentration (μM): 1 (H2030 cells, 1 μM): C (C ≤ 35); Percent Degradation at Indicated Concentration (μM): 3 (H2030 cells, 3 μM): C (C ≤ 35); Dmax (H2030 cells): ≤ 35%
C=CC(=O)N1CCN(c2nc(NCCC(=O)N(C)CCOCCOCCOCCOCCOCCOCCOCCOCCOCCOCC(=O)N[C@H](C(=O)N3C[C@H](O)C[C@H]3C(=O)N[C@@H](C)c3ccc(-c4scnc4C)cc3)C(C)(C)C)nc3c(F)c(-c4cc(O)cc5ccccc45)c(Cl)cc23)CC1 [compound 198, (2S,4R)-1-((2S)-39-((4-(4-acryloylpiperazin-1-yl)-6-chloro-8-fluoro-7-(3-hydroxynaphthalen-1-yl)quinazolin-2-yl)amino)-2-(tert-butyl)-36-methyl-4,37-dioxo-6,9,12,15,18,21,24,27,30,33-decaoxa-3,36-diazanonatriacontanoyl)-4-hydroxy-N-((S)-1-(4-(4-methylthiazol-5-yl)phenyl)ethyl)pyrrolidine-2-carboxamide] | C (Percent Degradation: C ≤ 35) | C (Percent Degradation: C ≤ 35) | C (Percent Degradation: C ≤ 35) | ≤ 35 | –
C=CC(=O)N1CCN(c2nc(NCCC(=O)N(C)CCOCCOCCOCCOCCOc3ccc4c(c3)C(=O)N(C3CCC(=O)NC3=O)C4=O)nc3c(F)c(-c4c(O)cccc4F)c(Cl)cc23)CC1 [compound 75, 3-(((S)-4-(4-acryloylpiperazin-1-yl)-6-chloro-8-fluoro-7-(2-fluoro-6-hydroxyphenyl)quinazolin-2-yl)amino)-N-(14-((2-(2,6-dioxopiperidin-3-yl)-1,3-dioxoisoindolin-5-yl)oxy)-3,6,9,12-tetraoxatetradecyl)-N-methylpropanamide] | C (Percent Degradation: C ≤ 35) | C (Percent Degradation: C ≤ 35) | C (Percent Degradation: C ≤ 35) | ≤ 35 | –
C=CC(=O)N1CCN(c2nc(NCCC(=O)N(C)CCOCCOCCOCCOc3cc(-c4scnc4C)ccc3CNC(=O)[C@@H]3C[C@@H](O)CN3C(=O)[C@H](c3cc(C)no3)C(C)C)nc3c(F)c(-c4c(O)cccc4F)c(Cl)cc23)CC1 (atropisomer, axis not shown) [compound 131, (2S,4R)-N-(2-((15-(((S)-4-(4-acryloylpiperazin-1-yl)-6-chloro-8-fluoro-7-(2-fluoro-6-hydroxyphenyl)quinazolin-2-yl)amino)-12-methyl-13-oxo-3,6,9-trioxa-12-azapentadecyl)oxy)-4-(4-methylthiazol-5-yl)benzyl)-4-hydroxy-1-((S)-3-methyl-2-(3-methylisoxazol-5-yl)butanoyl)pyrrolidine-2-carboxamide] | C (Percent Degradation: C ≤ 35) | C (Percent Degradation: C ≤ 35) | C (Percent Degradation: C ≤ 35) | ≤ 35 | –
C=CC(=O)N1CCN(c2nc(NCCC(=O)N(C)CCOCCOc3ccc4c(c3)C(=O)N(C3CCC(=O)NC3=O)C4=O)nc3c(F)c(-c4c(O)cccc4F)c(Cl)cc23)CC1 [compound 69, 3-(((S)-4-(4-acryloylpiperazin-1-yl)-6-chloro-8-fluoro-7-(2-fluoro-6-hydroxyphenyl)quinazolin-2-yl)amino)-N-(2-(2-((2-(2,6-dioxopiperidin-3-yl)-1,3-dioxoisoindolin-5-yl)oxy)ethoxy)ethyl)-N-methylpropanamide] | C (Percent Degradation: C ≤ 35) | C (Percent Degradation: C ≤ 35) | C (Percent Degradation: C ≤ 35) | ≤ 35 | –
CCC(=O)N1CCN(c2nc(NCCC(=O)N(C)CCOCCOCCOCCOCCOc3cc(-c4scnc4C)ccc3CNC(=O)[C@@H]3C[C@@H](O)CN3C(=O)C(c3cc(C)no3)C(C)C)nc3c(F)c(-c4cc(O)cc5ccccc45)c(Cl)cc23)CC1 (stereo partly drawn) [compound 336, (2S,4R)-N-(2-((18-((6-chloro-8-fluoro-7-(3-hydroxynaphthalen-1-yl)-4-(4-propionylpiperazin-1-yl)quinazolin-2-yl)amino)-15-methyl-16-oxo-3,6,9,12-tetraoxa-15-azaoctadecyl)oxy)-4-(4-methylthiazol-5-yl)benzyl)-4-hydroxy-1-(3-methyl-2-(3-methylisoxazol-5-yl)butanoyl)pyrrolidine-2-carboxamide] | – | – | – | – | Percent Degradation at Indicated Concentration (μM): 0.3 (H2030 cells, 0.3 μM): C (C ≤ 35); Percent Degradation at Indicated Concentration (μM): 1 (H2030 cells, 1 μM): C (C ≤ 35); Percent Degradation at Indicated Concentration (μM): 3 (H2030 cells, 3 μM): C (C ≤ 35); Dmax (H2030 cells): ≤ 35%
Cc1ncsc1-c1ccc([C@H](C)NC(=O)[C@@H]2C[C@@H](O)CN2C(=O)[C@@H](NC(=O)COCCOCCN(C)C(=O)CCNc2nc(N3CCN(C(=O)C(O)O)CC3)c3cc(Cl)c(-c4c(O)cccc4F)c(F)c3n2)C(C)(C)C)cc1 (atropisomer, axis not shown) [compound 236, (2S,4R)-1-((S)-2-(tert-butyl)-15-(((S)-6-chloro-4-(4-(2,2-dihydroxyacetyl)piperazin-1-yl)-8-fluoro-7-(2-fluoro-6-hydroxyphenyl)quinazolin-2-yl)amino)-12-methyl-4,13-dioxo-6,9-dioxa-3,12-diazapentadecanoyl)-4-hydroxy-N-((S)-1-(4-(4-methylthiazol-5-yl)phenyl)ethyl)pyrrolidine-2-carboxamide] | – | – | C (Percent Degradation: C ≤ 35) | – | –
C=CC(=O)N1CCN(c2nc(NCCC(=O)N(C)CCOCCOCCNc3cccc4c3C(=O)N(C3CCC(=O)NC3=O)C4=O)nc3c(F)c(-c4cc(O)cc5ccccc45)c(Cl)cc23)CC1 (centres unmarked) [compound 57, 3-((4-(4-acryloylpiperazin-1-yl)-6-chloro-8-fluoro-7-(3-hydroxynaphthalen-1-yl)quinazolin-2-yl)amino)-N-(2-(2-(2-((2-(2,6-dioxopiperidin-3-yl)-1,3-dioxoisoindolin-4-yl)amino)ethoxy)ethoxy)ethyl)-N-methylpropanamide] | – | – | – | – | Percent Degradation at Indicated Concentration (μM): 0.3 (H2030 cells, 0.3 μM): C (C ≤ 35); Percent Degradation at Indicated Concentration (μM): 1 (H2030 cells, 1 μM): C (C ≤ 35); Percent Degradation at Indicated Concentration (μM): 3 (H2030 cells, 3 μM): C (C ≤ 35); Dmax (H2030 cells): ≤ 35%
C=CC(=O)N1CCN(c2nc(NCCC(=O)N(C)CCOc3cc(-c4scnc4C)ccc3CNC(=O)[C@@H]3C[C@@H](O)CN3C(=O)[C@@H](c3cc(C)no3)C(C)C)nc3c(F)c(-c4cc(O)cc5ccccc45)c(Cl)cc23)CC1 [compound 337] | C (Percent Degradation: C ≤ 35) | C (Percent Degradation: C ≤ 35) | C (Percent Degradation: C ≤ 35) | ≤ 35 | –
Cc1ncsc1-c1ccc([C@H](C)NC(=O)[C@@H]2C[C@@H](O)CN2C(=O)[C@@H](NC(=O)COCCN(C)C(=O)CCNc2nc(N3CCN(C(=O)C(O)O)CC3)c3cc(Cl)c(-c4c(O)cccc4F)c(F)c3n2)C(C)(C)C)cc1 (atropisomer, axis not shown) [compound 235, (2S,4R)-1-((S)-2-(2-(2-(3-(((R)-6-chloro-4-(4-(2,2-dihydroxyacetyl)piperazin-1-yl)-8-fluoro-7-(2-fluoro-6-hydroxyphenyl)quinazolin-2-yl)amino)-N-methylpropanamido)ethoxy)acetamido)-3,3-dimethylbutanoyl)-4-hydroxy-N-((S)-1-(4-(4-methylthiazol-5-yl)phenyl)ethyl)pyrrolidine-2-carboxamide] | – | – | – | – | Percent Degradation at Indicated Concentration (μM) (H2030 cells, 0.3 μM): C (Percent Degradation: C ≤ 35); Percent Degradation at Indicated Concentration (μM) (H2030 cells, 1 μM): C (Percent Degradation: C ≤ 35); Percent Degradation at Indicated Concentration (μM) (H2030 cells, 3 μM): C (Percent Degradation: C ≤ 35)
C=CC(=O)N1CCN(c2nc(NCCC(=O)N(C)CCOCCOCC(=O)N[C@H](C(=O)N3C[C@H](O)C[C@H]3C(=O)N[C@@H](C)c3ccc(-c4scnc4C)cc3)C(C)(C)C)nc3c(F)c(-c4c(O)cccc4F)c(Cl)cc23)CC1 (atropisomer, axis not shown) [compound 208, (2S,4R)-1-((S)-15-(((R)-4-(4-acryloylpiperazin-1-yl)-6-chloro-8-fluoro-7-(2-fluoro-6-hydroxyphenyl)quinazolin-2-yl)amino)-2-(tert-butyl)-12-methyl-4,13-dioxo-6,9-dioxa-3,12-diazapentadecanoyl)-4-hydroxy-N-((S)-1-(4-(4-methylthiazol-5-yl)phenyl)ethyl)pyrrolidine-2-carboxamide] | C (Percent Degradation: C ≤ 35) | C (Percent Degradation: C ≤ 35) | C (Percent Degradation: C ≤ 35) | ≤ 35 | –
